Measurements published in patent US20070197591A1, “USE OF PALIPERIDONE FOR THE TREATMENT OF A MENTAL DISORDER IN A PSYCHIATRIC PATIENT WITH REDUCED HEPATIC FUNCTION” (priority 2005, published 2007).
Where two headings read alike, the source gives them in different places.

Tests used:
[1] = Single-dose pharmacokinetics of IR paliperidone in subjects with moderate hepatic impairment vs normal hepatic function; assay type: in vivo, human; details: for CL renal / AUC(0-inf) / half-life / Tmax / Cmax: both sexes, human, 1 mg; for CL renal: plasma and urine; for AUC(0-inf) / half-life / Tmax / Cmax: plasma; for half-life: read-out: t1/2 (terminal half-life) (converted); for Tmax: read-out: tmax, median (range); for Ae, % dose: urine
From the text: Objectives: The primary objective of this study was to investigate the single-dose pharmacokinetics of immediate-release (IR) paliperidone, after oral administration, in subjects having moderate hepatic impairment (“hepatically-impaired subjects”) compared with subjects having normal hepatic function (“healthy subjects”). The secondary objective was to document the plasma protein binding and disposition of the enantiomers of paliperidone. In addition, the tolerability and safety profile of IR paliperidone was compared between hepatically impaired subjects and healthy subjects. Methodology: This was a single-dose, parallel-group, open-label, single-center, Phase I study of IR paliperidone in subjects having either normal or moderately impaired hepatic function. The groups, consisting of 10 subjects each, were demographically matched with respect to age, weight, sex, and ethnicity. The study consisted of a screening period of up to 3 weeks and an open-label, single-dose treatment period (Days 1 through 5). On Day 1, a single dose of 1 mg IR paliperidone oral solution was administered after a fast of at least 10 hours; subjects continued to fast for 4 hours following study drug administration. The 96-hour follow-up consisted of serial sample collection of blood and urine for pharmacokinetic analysis and safety and tolerability assessments. Subjects remained confined to the study site through the 72-hour pharmacokinetics sampling, and consumed standard institutional meals while in the study site. Subjects were released after the 72-hour sampling, then returned to the study site on Day 5 before the 96-hour pharmacokinetics sampling: end-of-study procedures were performed immediately hereafter. A blood sample for DNA isolation was collected to allow for genetic analysis as necessary. Diagnosis and Main Criteria for Inclusion: The study was conducted in men and women, aged 18 through 75 years, inclusive. One group of subjects had moderate hepatic impairment, with stable hepatic disease, a total Child-Pugh score of between 7 and 9, inclusive, and blood pressure that was controlled and stable on antihypertensive agents; the other group had normal hepatic function. Test Product, Dose and Mode of Administration, Batch No: 1 mg IR paliperidone (R076477) oral solution; batch 04C29/[…]. Criteria for Evaluation: Pharmacokinetics: Plasma and urine concentrations of the paliperidone enantiomers (+) R078543 and (-) R078544 were determined using an LC-MS/MS method. Concentrations of paliperidone were calculated as the sum of the enantiomer concentrations. In addition, serum and urine concentrations of creatinine were determined for the calculation of CLCR. The protein binding and unbound fraction was determined for the 2 paliperidone enantiomers. The unbound fraction for paliperidone was calculated. Based on the actual pharmacokinetic blood sampling times and actual urine collection periods, the following plasma and urine pharmacokinetic parameters were determined for paliperidone and its enantiomers: Cmax, tmax, tlast, AUClast, λZ, t1/2, AUC∞, % AUC∞,ex, CL/F, AUC∞+/- ratio, Ct+/- ratio per time point, unbound AUC∞, unbound CL/F or unbound CL (if relevant), Ae (per collection interval and overall), Ae,% dose, Excr. Rate, […], and CLNR. Pharmacokinetics: Descriptive statistics were evaluated for the plasma concentrations at each sampling time, and for all pharmacokinetic parameters of paliperidone and its enantiomers for each hepatic function group Graphical exploration of the paliperidone and enantiomer plasma concentrations and urine data, and the derived pharmacokinetic parameters, was performed. In addition, the enantiomer disposition was compared between the groups. Log-transformed PK parameters were fit to a general linear model with hepatic function grip as fixed effect.

[2] = Plasma protein binding / unbound fraction of paliperidone and its enantiomers; assay type: in vitro ADME, human; details: human
From the text: Objectives: The primary objective of this study was to investigate the single-dose pharmacokinetics of immediate-release (IR) paliperidone, after oral administration, in subjects having moderate hepatic impairment (“hepatically-impaired subjects”) compared with subjects having normal hepatic function (“healthy subjects”). The secondary objective was to document the plasma protein binding and disposition of the enantiomers of paliperidone. In addition, the tolerability and safety profile of IR paliperidone was compared between hepatically impaired subjects and healthy subjects. Criteria for Evaluation: Pharmacokinetics: Plasma and urine concentrations of the paliperidone enantiomers (+) R078543 and (−) R078544 were determined using an LC-MS/MS method. Concentrations of paliperidone were calculated as the sum of the enantiomer concentrations. In addition, serum and urine concentrations of creatinine were determined for the calculation of CLCR. The protein binding and unbound fraction was determined for the 2 paliperidone enantiomers. The unbound fraction for paliperidone was calculated.

[3] = Hepatically-Impaired Subjects, Total
[4] = Hepatically-Impaired Subjects, Unbound
[5] = oral, Healthy Subjects, Unbound
[6] = oral, Hepatically-Impaired Subjects, Total
[7] = oral, Hepatically-Impaired Subjects, Unbound

CL/F ([1]; Healthy Subjects, Total): 106 ± 34.9 mL/min
CLNR ([1]; Healthy Subjects, Total): 54.4 ± 23.7 mL/min
Vdz ([1]; Healthy Subjects, Total): 211 ± 59.6 L
CL/F ([1]; Healthy Subjects, Unbound): 370 ± 67.1 mL/min
CLNR ([1]; Healthy Subjects, Unbound): 188 ± 56.8 mL/min
Vdz ([1]; Healthy Subjects, Unbound): 748 ± 144 L
CL/F [1, 3]: 143 ± 43.4 mL/min
CLNR [1, 3]: 75.1 ± 16.2 mL/min
Vdz [1, 3]: 311 ± 65.2 L
CL/F [1, 4]: 386 ± 99.3 mL/min
CLNR [1, 4]: 205 ± 30.7 mL/min
Vdz [1, 4]: 857 ± 146 L
clearance and volume of distribution between the groups ([1]; based on unbound concentrations): comparable
Active renal clearance as share of the renal clearance ([1]; both groups): approximately 45%
median time to reach maximum plasma concentration ([1]; both groups): around 1 hour
CL renal ([1]; oral, Healthy Subjects, Total, read-out: CLR): 51.2 ± 13.4 mL/min
CL renal ([1]; oral, Hepatically-Impaired Subjects, Total, read-out: CLR): 67.4 ± 34 mL/min
CL renal ([1]; oral, healthy subjects (second value of '67.4 vs. 51.2'), read-out: Renal clearance): 51.2 mL/min
CL renal ([1]; oral, hepatically-impaired subjects (first value of '67.4 vs. 51.2'), read-out: Renal clearance): 67.4 mL/min
AUC(0-inf) ([1]; oral, Healthy Subjects, Total): 176 ± 64.4 ng·h/mL
half-life ([1]; oral, Healthy Subjects, Total): 1420 min
Tmax ([1]; oral, Healthy Subjects, Total): 1 h
AUC(0-inf) [1, 5]: 45.8 ± 8.72 ng·h/mL
Cmax [1, 5]: 1.81 ± 0.292 ng/mL
Tmax [1, 5]: 1.25 h
AUC(0-inf) [1, 6]: 128 ± 42.5 ng·h/mL
Cmax [1, 6]: 4.57 ± 1.05 ng/mL
half-life [1, 6]: 1590 min
Tmax [1, 6]: 1.25 h
AUC(0-inf) [1, 7]: 45.7 ± 12.6 ng·h/mL
Cmax [1, 7]: 1.59 ± 0.318 ng/mL
Tmax [1, 7]: 1.25 h
Cmax ([1]; po, Healthy Subjects, Total, 1 mg IR oral solution): 7.14 ± 2.28 ng/mL
dose excreted unchanged into urine ([1]; did not differ between the groups): Approximately 50%
CL/F higher in hepatically-impaired compared with healthy subjects ([1]; total): about 35%
volume of distribution higher in hepatically-impaired compared with healthy subjects ([1]; total Paliperidone): 47%
exposure (Cmax, AUC∞) between hepatic function groups after correction for unbound fraction ([1]; unbound): comparable
AUC∞ lower in hepatically-impaired compared with healthy subjects ([1]; unbound fraction): approximately 5%
Cmax lower in hepatically-impaired compared with healthy subjects ([1]; unbound fraction): approximately 12%
fraction unbound ([2]; Healthy Subjects (n = 10)): 0.279
fraction unbound ([2]; Hepatically-Impaired Subjects (n = 10; paliperidone n = 8)): 0.353
relative increase in unbound fraction vs healthy subjects ([2]; vs healthy subjects, read-out: unbound fraction higher in hepatically-impaired subjects): ~0.27
Structure (SMILES): Cc1nc2n(c(=O)c1CCN1CCC(c3noc4cc(F)ccc34)CC1)CCCC2O (centres unmarked) [Paliperidone, paliperidone]
Ae, % dose ([1]; Healthy Subjects): 50.1 ± 7.94 % dose
Ae, % dose ([1]; Hepatically-Impaired Subjects): 44.7 ± 10.62 % dose
